Assay results reported in PMC11542786, “Isoscopoletin inhibits hepatocellular carcinoma cell proliferation via regulating glycolysis-related proteins” (PLOS ONE, 2024).

Tests used:
Test in all cases: microscale thermophoresis
Assay type in all cases: binding
Hsp90α = target: T1, Hsp90α (Homo sapiens, UniProt P07900)
T1 construct: gene HSP90AA1; labelled with DyLight 488 for MST

PGK2 = target: T2, PGK2 (Homo sapiens, UniProt P07205)
T2 construct: labelled with DyLight 488 for MST; docking model 2paa is not the assayed protein
T2 sequence (P07205 2-417): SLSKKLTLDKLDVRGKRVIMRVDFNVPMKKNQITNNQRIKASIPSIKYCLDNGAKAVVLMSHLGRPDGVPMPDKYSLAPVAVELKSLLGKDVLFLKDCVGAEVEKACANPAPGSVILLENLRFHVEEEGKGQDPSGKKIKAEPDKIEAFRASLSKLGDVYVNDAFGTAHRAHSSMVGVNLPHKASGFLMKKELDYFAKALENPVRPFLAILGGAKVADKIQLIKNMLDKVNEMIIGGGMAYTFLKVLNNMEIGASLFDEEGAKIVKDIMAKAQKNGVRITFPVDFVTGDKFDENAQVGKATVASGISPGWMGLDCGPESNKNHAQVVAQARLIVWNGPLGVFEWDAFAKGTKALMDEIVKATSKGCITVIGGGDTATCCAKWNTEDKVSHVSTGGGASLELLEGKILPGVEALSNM

GPD2 = target: T3, GPD2 (Homo sapiens, UniProt P43304)
T3 construct: labelled with DyLight 488 for MST; docking model 1x0v is not the assayed protein
T3 sequence (P43304 43-727): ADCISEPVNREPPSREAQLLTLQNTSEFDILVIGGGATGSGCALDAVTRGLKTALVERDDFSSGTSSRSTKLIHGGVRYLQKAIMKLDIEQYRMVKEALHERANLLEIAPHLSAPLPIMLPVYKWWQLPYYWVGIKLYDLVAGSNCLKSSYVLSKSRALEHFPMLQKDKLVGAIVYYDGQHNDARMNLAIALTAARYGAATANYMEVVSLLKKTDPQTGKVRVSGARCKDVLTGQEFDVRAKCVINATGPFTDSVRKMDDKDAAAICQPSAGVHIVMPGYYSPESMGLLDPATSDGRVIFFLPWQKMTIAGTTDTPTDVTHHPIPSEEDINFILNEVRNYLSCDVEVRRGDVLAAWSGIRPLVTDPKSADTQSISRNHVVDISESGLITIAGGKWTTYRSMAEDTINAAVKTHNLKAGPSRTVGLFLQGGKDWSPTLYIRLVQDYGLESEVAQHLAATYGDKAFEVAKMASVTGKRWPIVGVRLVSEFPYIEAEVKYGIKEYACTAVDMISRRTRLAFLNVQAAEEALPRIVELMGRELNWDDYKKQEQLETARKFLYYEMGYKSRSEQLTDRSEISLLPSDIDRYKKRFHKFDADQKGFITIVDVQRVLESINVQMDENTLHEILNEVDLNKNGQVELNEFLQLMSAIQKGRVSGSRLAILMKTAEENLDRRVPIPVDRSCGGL

GPI = target: T4, GPI (Homo sapiens, UniProt P06744)
T4 construct: labelled with DyLight 488 for MST

Kd (Hsp90α): 52.2 mM
Kd (PGK2): 3.22 mM
Kd (GPD2): 13.4 mM
Kd (GPI): 1.35 mM
SMILES: COc1cc2oc(=O)ccc2cc1O [Isoscopoletin]
